Assay results reported in patent publication US20050222235A1, “Drugs for improving the prognosis of brain injury and a method of screening the same” (priority 2002, published 2005).

Legend:
Format in all cases: in vivo, mouse
Stab wound model mice [1] = assay: Stab wound model of traumatic brain injury: recovery / progress of brain injury (histology)
Stab wound model mice [2] = assay: Stab wound model: Evans Blue dye leakage to the injured site; details: for leakage of the dye to the injured site: Stab wound model mice, Evans Blue after 2 days
Protocol: Degree of injury was quantified by a dye leakage (Evans Blue) to the injured site (Kakimura Y, et al., Nature Medicine, 4:1078-1080, 1998). After 2 days from injury, the maximum value was noted and, after that, it lowered as a result of recovery (refer to FIG. 20).
An effect of BW A868C or ramatroban ((±)-(3R)-3-(4-fluorobenzenesulfonamide)-1,2,3,4-tetrahydrocarbazol-9-propionic acid) which is an antagonist for prostaglandin D receptor to Stab wound model mice was evaluated using leakage amount of dye to the injured site as an index. Thus, Evans Blue dye was intravenously administered after 2 days from occurrence of brain injury and the amount of leakage of the dye to the tissue during 2 hours thereafter was measured. When BW A868C (1 mg/kg) was intravenously administered after 3 hours and after one day from occurrence of the brain injury, leakage of the dye to the injured site was suppressed (refer to FIG. 27).
An effect of pinagladin which is a DP receptor antagonist to a Stab wound model was evaluated by a leakage amount of dye to the injured site. Thus, Evans Blue was intravenously injected on the second day after occurrence of brain injury and leakage amount of the dye into the tissue during 2 hours thereafter was measured. As a result, when pinagladin (10 mg/kg) was orally administered before 1 hour and after one day of the occurrence of the injury, an increase in leakage amount of Evans Blue dye noted as a result of brain injury was suppressed (refer to FIG. 24).

DP receptor = assay: Stab wound model: DP receptor mRNA in tissue injury region; details: oral 30 mg/kg/day for 4 days from one hour before injuring
Twitcher mice = Twitcher mice (hereditary demyelinating disease): astroglia activation and DP receptor expression; details: subcutaneous 30 mg/kg/day for 14 days
From the text: Changes in mRNA of H-PGDS and DP receptor as a result of demyelination were quantified by a quantitative RT-PCR method using a model mouse Twitcher of human Krabbe diseases which is a disease where galactosylceramidase is deficient (Kobayashi T, et al., Brain Res., 202:479-483, 1980; Duchen L W, et al., Brain, 103:695-710, 1980; Sakai N, et al., J. Neurochem., 66:1118-1124, 1996; Taniike M et al., J. Neuropathol. Exp. Neurol., 58:644-653, 1999) (refer to FIG. 1). Expression of mRNA of both H-PGDS and DP receptor increased as a result of demyelination.
HQL-79 (4-benzhydryloxy-1-{3-(1H-tetrazol-5-yl)-propyl}piperidine) which is an H-PGDS inhibitor was subcutaneously administered to Twitcher mice at the dose of 30 mg/kg/day for 14 days whereupon activation of astroglia cells was suppressed and, at the same time, expression of DP receptor in astroglia cells lowered (refer to FIG. 13).

[3] = traumatic brain injury, administration started after 24 hours from injury

O=C(O)CCCCCCC1C(=O)N(Cc2ccccc2)C(=O)N1NCC(O)C1CCCCC1 (racemic) [BW A868C, (±)-3-benzyl-5-(6-carboxyhexyl)-1-(2-cyclohexyl-2-hydroxyethylamino)-hydantoin]
recovery of brain injury (Stab wound model mice [1]; Stab wound model mice, intravenous 1 mg/kg/day for 4 days from the initial day of injury): promotion of recovery | leakage of the dye to the injured site (Stab wound model mice [2]; 1 mg/kg intravenous after 3 hours and after one day from injury, leakage during 2 hours): suppressed

c1ccc(C(OC2CCN(CCCc3nnn[nH]3)CC2)c2ccccc2)cc1 [HQL-79, 4-benzhydryloxy-1-{3-(1H-tetrazol-5-yl)-propyl}piperidine]
recovery of brain injury (Stab wound model mice [1]; Stab wound model, oral 30 mg/kg/day for 4 days from one hour before injuring): promotion of recovery | tissue injury (expansion of injury) (Stab wound model mice [1]; [3]): inhibitory effect | leakage reaction of dye to the injured site (Stab wound model mice [2]; Stab wound model, oral 30 mg/kg/day, administration started one hour before injury): therapeutic effect was also confirmed | tissue injury (leakage of dye) (Stab wound model mice [2]; [3]): inhibitory effect | amount of mRNA of DP receptor in tissue injury region (DP receptor): lowered | activation of astroglia cells (Twitcher mice): suppressed | expression of DP receptor in astroglia cells (Twitcher mice): lowered

CC1(C)[C@H]2C[C@H](C/C=C\CCCC(=O)O)[C@@H](NC(=O)c3csc4ccccc34)[C@@H]1C2 [pinagladin, (Z)-7-[(1R,2R,3S,5S)-2-(benzo[b]-thiophene-3-ylcarbonylamino)-10-norpinan-3-yl]hepta-5-enoic acid]
progress of brain injury (histopathological investigation) (Stab wound model mice [1]; Stab wound model, in any of administration routes): suppressed the progress of brain injury | increase in leakage amount of Evans Blue dye as a result of brain injury (Stab wound model mice [2]; Stab wound model, 10 mg/kg oral before 1 hour and after one day of injury, Evans Blue on second day, leakage during 2 hours): suppressed

O=C(O)CCn1c2c(c3ccccc31)C[C@H](NS(=O)(=O)c1ccc(F)cc1)CC2 [ramatroban, (+)-(3R)-3-(4-fluorobenzenesulfonamide)-1,2,3,4-tetrahydrocarbazol-9-propionic acid]
leakage of the dye to the injured site (Stab wound model mice [2]; 30 mg/kg oral after 3 hours and after one day from injury, leakage during 2 hours): suppressed
